{
  "source": "patent US5646136A",
  "about": "“Methods of inhibiting angiogenesis and tumor growth, and treating ophthalmologic conditions with angiostatic and therapeutic steroids” (Duke University, priority 1994, dated 1997)",
  "key": {"MCF-7 breast cancer": {"tested_on": "MCF-7 breast cancer", "settings": "in vitro; cited from earlier work"}, "glucocorticoid activity": {"tested_on": "glucocorticoid activity", "assay": "Glucocorticoid activity (general statements)"}, "human pancreatic cancers": {"tested_on": "human pancreatic cancers", "assay": "Inhibition of human pancreatic cancers", "settings": "in particular cancers rich in glucocorticoid receptors"}, "[1]": {"assay": "Body weight of rats treated topically in the corneal angiogenesis study", "type": "in vivo, rat", "settings": "topical, all concentrations", "description": "(§1) The ability of etianic acids to inhibit angiogenesis was evaluated in vivo in rats. Each animal had its corneas cauterized with silver nitrate/potassium nitrate. The cauterization causes the normally avascular cornea to undergo neovascularization (anglogenesis). This animal model, refined by Proia et al., Lab. Invest. 58: 473-479 (1988) and now a well-established assay, quantifies corneal neovascularization by computerized image analysis. […] Ophthalmol. Vis. Science 30: 1588-1593 (1989), and can provide a more definitive evaluation of angiostatic activity than models using the chorioallantoic membrane in the chick egg or the rabbit eye model. See Proia et al., Exp. Eye Res. (in press--to be published in Vol. 57 in 1993).\n(§2) Female rats were obtained from Zivic-Miller Laboratories, Zelienople, Pa. There were 6-8 rats included in each treatment group. Neovascularization was induced by cauterizing both corneas of each anesthetized rat; this was performed by applying the tip of a silver nitrate/potassium nitrate to the cornea for 5-7.5 seconds.\n(§3) Steroids were formulated in vehicle containing 10 percent Tween 20 (polyoxyethylene sorbitan monolaurate) dissolved in 0.9 percent saline with percent (by volume) 0.2M tris (hydroxymethyl)aminomethane, pH 7.4. The steroids dissolved readily when the pH was adjusted to 7.0-8.0 with NaOH or KOH. All steroids were tested at a concentration of 1 percent; additionally, some formulations were also tested at 0.01 percent, 0.1 percent, and 2.5 percent. Three 10 μl drops of each concentration of steroid were applied topically to each cauterized cornea four times per day (8:00 a.m., noon, 4:00 p.m., and 8:00 p.m.).\nAfter four days of treatment, the animals were euthanized by rapid asphyxiation in a carbon dioxide chamber. The vasculature was perfused with a mixture of 10 percent india ink/11 percent gelatin/lactated Ringer's solution. […] After dehydration with alcohols, cleaning with xylene, mounting, and drying, the area of each cornea and the length of blood vessels were determined by computerized image analysis."}, "rat corneas": {"tested_on": "rat corneas", "assay": "Histological study of steroid-treated cauterized corneal tissue", "type": "in vivo", "settings": "1 percent topical QID", "description": "A histological study was performed in which either vehicle or 1 percent compound 2013 (17β-carboxylic acid derivative of prednisolone) was applied topically (QID) to rat corneas cauterized as described in Example 23. Five rats were included in each experimental group. The rats were killed either one or four days after treatment.\nHistological sections were prepared through the cautery site."}, "[2]": {"tested_on": "corneal neovascularization", "assay": "Inhibition of corneal neovascularization in cauterized rat corneas, topical application four times per day for four days", "type": "in vivo", "settings": "for Neovascularization (percent of the corneal area occupied by blood vessels): mean ± S.D.; for Percent Inhibition of neovascularization: versus vehicle", "description": "as §1, §2\nThe corneal tissues were treated with steroid formulations.\nSteroids were formulated in vehicle containing 10 percent Tween 20 (polyoxyethylene sorbitan monolaurate) dissolved in 0.9 percent saline with percent (by volume) 0.2M tris (hydroxymethyl)aminomethane, pH 7.4. […] All steroids were tested at a concentration of 1 percent; additionally, some formulations were also tested at 0.01 percent, 0.1 percent, and 2.5 percent. Three 10 μl drops of each concentration of steroid were applied topically to each cauterized cornea four times per day (8:00 a.m., noon, 4:00 p.m., and 8:00 p.m.).\n(§4) After four days of treatment, the animals were euthanized by rapid asphyxiation in a carbon dioxide chamber. The vasculature was perfused with a mixture of 10 percent india ink/11 percent gelatin/lactated Ringer's solution. Corneal tissue was dissected and prepared as flat mounts. During dissection, the corneas were examined with a dissecting microscope, and the degree of neovascularization was graded numerically from 1+ to 4+. After dehydration with alcohols, cleaning with xylene, mounting, and drying, the area of each cornea and the length of blood vessels were determined by computerized image analysis.\nStatistical evaluation of inhibition of corneal neovascularization by each concentration of drug was evaluated using Mann Whitney U Tests (one-tailed; P<0.05=significant difference). […] In all cases, however, image analysis was used to quantitatively confirm visual observations."}, "[3]": {"tested_on": "corneal neovascularization", "assay": "Corneal angiogenesis inhibition, subcutaneous injection once/day", "type": "in vivo, rat", "description": "as §1, §2, §4\nThe ability of compounds 2013, 518, and 513 to inhibit corneal angiogenesis when injected subcutaneously once/day to was assessed on rats prepared as described in Example 8. Dexamethasone was used as a positive control."}, "[4]": {"tested_on": "Kirsten murine sarcoma virus transformed human skin fibroblasts", "settings": "cited from earlier work"}, "thymus": {"tested_on": "thymus", "assay": "Thymus weight of rats treated topically in the corneal angiogenesis study", "type": "in vivo, rat", "description": "as §1, §2, §3, §4"}, "[5]": {"tested_on": "Dunning R3327 (PAP) prostatic adenocarcinoma", "settings": "in vitro; cited from earlier work"}},
  "data": [
    {"smiles": "C[C@]12C=CC(=O)C=C1CC[C@@H]1[C@@H]2[C@@H](O)C[C@@]2(C)[C@H]1CC[C@]2(O)C(=O)NCc1ccccc1", "note": "[benzylamide derivative, prednienic acid benzylamide]", "values": [
      {"measurement": "Inhibition of MCF-7 breast cancer (in words)", "setting": "MCF-7 breast cancer", "value": "inhibits MCF-7 breast cancer"}
    ]},
    {"smiles": "C[C@]12C=C(C(=O)O)C(=O)C=C1CC[C@@H]1[C@@H]2[C@@H](O)C[C@@]2(C)[C@H]1CC[C@]2(C)O", "note": "[2-carboxyl-11β,17β-dihydroxy-17α-methyl-1,4-androstadien-3-one]", "values": [
      {"measurement": "Glucocorticoid activity (in words)", "setting": "glucocorticoid activity", "value": "anti-glucocorticoid"},
      {"measurement": "Inhibition of human pancreatic cancers (in words)", "setting": "human pancreatic cancers", "value": "inhibits certain human pancreatic cancers, and in particular inhibits those cancers rich in glucocorticoid receptors"}
    ]},
    {"smiles": "C[C@]12C=CC(=O)C=C1CC[C@@H]1[C@@H]2[C@@H](O)C[C@@]2(C)[C@H]1CC[C@]2(O)C(=O)O", "note": "[Compound 2013, 17β-carboxyl-11β,17α-dihydroxy-3-oxo-1,4-androstadiene]", "values": [
      {"measurement": "Effect on body weight (in words)", "setting": "[1]", "value": "Body weight was unaffected by treatment with any concentration"},
      {"measurement": "Degree of leukocytic infiltrate versus vehicle (in words)", "setting": "rat corneas; 24 or 96 hours post-cautery", "value": "no difference in the degree of leukocytic infiltrate"},
      {"measurement": "Corneal reepithelialization and neovascularization (in words)", "setting": "rat corneas; 24 hours after cautery", "value": "Neither corneal reepithelialization nor neovascularization were observed"},
      {"measurement": "Corneal reepithelialization (in words)", "setting": "rat corneas; 96 hours post-cautery", "value": "all corneas were reepithelialized"},
      {"measurement": "Neovascularization (histological)", "setting": "rat corneas; 96 hours post-cautery", "value": "0.6±0.6"},
      {"measurement": "Neovascularization versus vehicle (in words)", "setting": "rat corneas; 96 hours post-cautery", "value": "marked reduction in neovascularization"},
      {"measurement": "Neovascularization (percent of the corneal area occupied by blood vessels)", "setting": "[2]; Experiment A, topical 0.01%", "value": "26.2 ± 6.3", "unit": "%"},
      {"measurement": "Percent Inhibition of neovascularization", "setting": "[2]; Experiment A, topical 0.01%", "value": "+21%"},
      {"measurement": "Neovascularization (percent of the corneal area occupied by blood vessels)", "setting": "[2]; Experiment A, topical 0.1%", "value": "13.9 ± 7.3", "unit": "%"},
      {"measurement": "Percent Inhibition of neovascularization", "setting": "[2]; Experiment A, topical 0.1%", "value": 36, "unit": "%"},
      {"measurement": "Neovascularization (percent of the corneal area occupied by blood vessels)", "setting": "[2]; Experiment A, topical 1.0%", "value": "9.8 ± 2.0", "unit": "%"},
      {"measurement": "Percent Inhibition of neovascularization", "setting": "[2]; Experiment A, topical 1.0%", "value": 55, "unit": "%"},
      {"measurement": "Neovascularization (percent of the corneal area occupied by blood vessels)", "setting": "[2]; Experiment B, topical 0.01%", "value": "18.3 ± 4.0", "unit": "%"},
      {"measurement": "Percent Inhibition of neovascularization", "setting": "[2]; Experiment B, topical 0.01%", "value": 22, "unit": "%"},
      {"measurement": "Neovascularization (percent of the corneal area occupied by blood vessels)", "setting": "[2]; Experiment B, topical 0.1%", "value": "14.6 ± 6.8", "unit": "%"},
      {"measurement": "Percent Inhibition of neovascularization", "setting": "[2]; Experiment B, topical 0.1%", "value": 38, "unit": "%"},
      {"measurement": "Neovascularization (percent of the corneal area occupied by blood vessels)", "setting": "[2]; Experiment B, topical 1.0%", "value": "16.0 ± 3.6", "unit": "%"},
      {"measurement": "Percent Inhibition of neovascularization", "setting": "[2]; Experiment B, topical 1.0%", "value": 32, "unit": "%"},
      {"measurement": "Inhibition of corneal vascularization (significance, in words)", "setting": "[2]; applied topically", "value": "did cause significant inhibition of corneal vascularization"},
      {"measurement": "Neovasc.", "setting": "[3]; 10 mg/kg/day subcutaneous", "value": "21.5 ± 6.3", "unit": "%"},
      {"measurement": "Neovasc.", "setting": "[3]; 25 mg/kg/day subcutaneous", "value": "17.1 ± 3.0", "unit": "%"},
      {"measurement": "Neodifferentiation into adipose cells (in words)", "setting": "[4]", "value": "promotes neodifferentiation"},
      {"measurement": "Change in thymus weight (in words)", "setting": "thymus; topical 0.1 percent", "value": "no significant effect on thymus weight"},
      {"measurement": "Decrease of thymus weight from control", "setting": "thymus; topical 1 percent", "value": 27, "unit": "%"},
      {"measurement": "Thymus weight", "setting": "thymus; topical 1 percent, four days", "value": "0.207±0.035", "unit": "gm"},
      {"measurement": "Growth inhibition of Dunning R3327 (PAP) (in words)", "setting": "[5]", "value": "inhibits growth of the Dunning R3327 (PAP) prostatic adenocarcinoma"}
    ]}
  ]
}
